How the values were obtained:
[1] = system: microorganisms (e.g., bacteria and fungi); assay: Anti-microbial effectiveness (AME) test (USP, EP-B, EP-A criteria); type: cell-based; details: initial screening, octavalent HPV formulation with MAA, stored one week at 2-8° C. before test
Experimental: The effectiveness of various preservatives in candidate HPV vaccine formulations was evaluated using an antimicrobial test (anti-microbial effectiveness (AME) test). AME testing was used to determine the ability of a preservative to reduce or eliminate microbes that may be introduced into the vial following product withdrawal. […] Briefly, the AME test comprises the EPA, EPB and USP criteria, which consist of inoculating 10^5-10^6 CFU/mL microorganisms (e.g., bacteria and fungi) per container at time zero, and evaluating the log reduction over time (Meyer et al., supra).
Thimerosal was also included as a reference.
All samples contained 562.5 mcg/mL MAA, 0.32 M NaCl, 10 mM His, 0.01% polysorbate-80 (PS-80), pH 6.2. Formulations containing chlorobutanol and propylparaben were tested with and without the addition of 120 mcg/mL ISCOMATRIX®.
Preservatives were added to octavalent HPV formulations comprising 8 types of HPV VLPs, as described in EXAMPLE 1, and were stored for one week at 2-8° C. prior to AME testing.
Several HPV vaccine formulations with various dose and combinations of preservatives, in the presence or absence of IMX adjuvant, were tested.
Each type of HPV VLP aqueous bulk was absorbed on MAA separately with a protein-to-adjuvant ratio of 0.71 to form the monovalent vaccines in 0.32 M NaCl, 10 mM Histidine (pH 6.2), 0.01% (w/v) PS-80. […]

HPV18 VLPs = HPV18 VLPs (Human papillomavirus type 18, UniProt P06794); type: physicochemical, HPV; details: data not shown
Experimental: Differential Scanning Calorimetry (DSC) was used to evaluate the impact of preservatives on protein structural and thermal stability. The analysis for antigen thermal stability was determined using a VP-Capillary DSC Platform (MicroCal, LLC, Northampton, Mass.). A detailed description of the conditions utilized is disclosed in Ionescu et al. (2007) (J. Pharm. Sci. 97(4): 1414-1426 (2008)).
The DSC evaluation was carried out in the presence of various preservatives with varied concentrations.

HPV Type 18 VLPs = HPV Type 18 VLPs (Human papillomavirus type 18, UniProt P06794); type: binding; details: HPV18 VLPs, 2 months at 2-8° C., n=2, Biacore
Sequence of HPV Type 18 VLPs (P06794 whole entry): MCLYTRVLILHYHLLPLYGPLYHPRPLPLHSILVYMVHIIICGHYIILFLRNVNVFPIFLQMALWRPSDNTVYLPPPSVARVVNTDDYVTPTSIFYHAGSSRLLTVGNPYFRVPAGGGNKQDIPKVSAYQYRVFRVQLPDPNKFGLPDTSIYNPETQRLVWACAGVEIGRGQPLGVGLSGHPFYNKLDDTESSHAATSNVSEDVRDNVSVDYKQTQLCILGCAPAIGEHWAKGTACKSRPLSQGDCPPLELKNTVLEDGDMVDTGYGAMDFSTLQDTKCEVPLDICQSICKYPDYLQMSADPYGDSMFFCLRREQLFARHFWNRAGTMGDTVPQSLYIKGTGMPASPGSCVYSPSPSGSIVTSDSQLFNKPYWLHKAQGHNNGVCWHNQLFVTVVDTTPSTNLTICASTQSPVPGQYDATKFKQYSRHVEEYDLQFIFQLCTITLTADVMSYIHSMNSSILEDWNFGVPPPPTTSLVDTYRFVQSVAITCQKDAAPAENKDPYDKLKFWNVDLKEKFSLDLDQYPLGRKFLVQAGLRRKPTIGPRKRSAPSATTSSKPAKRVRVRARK
Experimental: The in vitro antigenicity of HPV vaccine formulations comprising HPV18 VLPs and different preservatives was evaluated using a neutralization antibody binding assay (Biacore, Surface Plasmon Resonance). The analysis for antigen bioactivity was determined using the Biacore 2000 (VPR 332) and Biacore 3000 (VPR 696) (Biacore, Inc., Piscataway, N.J.).
Samples were incubated for 2 months at 2-8° C. prior to sample treatment by aluminum dissolution, followed by the final Biacore analysis.

Sequence of HPV18 VLPs (P06794 whole entry): as above

Row | Structure (SMILES) | AME test criteria passed (USP, EP-B, EP-A) [1] | impact on the thermal stability of HPV type 18 (DSC) (HPV18 VLPs) | average relative in vitro antigenicity (HPV Type 18 VLPs)
1 | OCCOc1ccccc1 [2-phenoxyethanol] | did not pass EP-B or EP-A | – | –
2 | C[CH2][Hg][S]c1ccccc1C(=O)[O-].[Na+] [thimerosal] | – | greatest impact | 80%

Source: US7709010B2, “Papillomavirus vaccine compositions” (Merck Sharp & Dohme Corp., priority 2007, dated 2010)
